The subject of data set [1] is Felis catus. Description: Inhibition of electrical stimulation-induced polysynaptic spinal reflex response in unanesthetized decerebrated cat spinal cord segment at 5 mg/kg, iv relative to control. The class given is functional.
In data set [2] the test system is Felis catus. As to the kind of experiment: Toxicity in cat assessed as motor deficit at 2 to 4 mg/kg, iv. More on the design: dose 2-4 mg/kg, route intravenous. The conditions noted are these: in vivo. The class given is organism-based.
In data set [3] the test system is Felis catus. Description: Toxicity in cat assessed as motor deficit at 10 mg/kg, po. The class given is organism-based. The following applies: in vivo. The arrangement: dose 10 mg/kg, route oral.
Data set [4] concerns Felis catus. Description: Inhibition of electrical stimulation-induced monosynaptic spinal reflex response in unanesthetized decerebrated cat spinal cord segment at 5 mg/kg, iv relative to control. The data set is classed as functional.
The subject of data set [5] is Felis catus. Description: Inhibition of electrical stimulation-induced monosynaptic spinal reflex response in unanesthetized decerebrated cat spinal cord segment assessed as duration at 5 mg/kg, iv. The data set is classed as functional.
Data set [6] concerns Felis catus. Description: Induction of electrical stimulation-induced monosynaptic spinal reflex response in unanesthetized decerebrated cat spinal cord segment at 5 mg/kg, iv relative to control. The class given is functional.
Data set [7] concerns Felis catus. As to the kind of experiment: Inhibition of electrical stimulation-induced polysynaptic spinal reflex response in unanesthetized decerebrated cat spinal cord segment assessed as duration at 5 mg/kg, iv. The data set is classed as functional.
Data set [8] concerns Felis catus. As to the kind of experiment: Inhibition of electrical stimulation-induced monosynaptic spinal reflex response in unanesthetized decerebrated cat spinal cord segment assessed as duration at 2 mg/kg, iv. The class given is functional.
Data set [9] has as its system Felis catus. As to the kind of experiment: Inhibition of electrical stimulation-induced monosynaptic spinal reflex response in unanesthetized decerebrated cat spinal cord segment assessed as duration at 10 mg/kg, iv. The class given is functional.
For data set [10], the system named is Felis catus. As to the kind of experiment: Inhibition of electrical stimulation-induced polysynaptic spinal reflex response in unanesthetized decerebrated cat spinal cord segment at 2 mg/kg, iv relative to control. The class given is functional.
The test system of data set [11] is Felis catus. Description: Inhibition of electrical stimulation-induced polysynaptic spinal reflex response in unanesthetized decerebrated cat spinal cord segment at 10 mg/kg, iv relative to control. The data set is classed as functional.
The test system of data set [12] is Felis catus. As to the kind of experiment: Inhibition of electrical stimulation-induced monosynaptic spinal reflex response in unanesthetized decerebrated cat spinal cord segment at 2 mg/kg, iv relative to control. The data set is classed as functional.
Data set [13] concerns Felis catus. Description: Inhibition of electrical stimulation-induced monosynaptic spinal reflex response in unanesthetized decerebrated cat spinal cord segment at 10 mg/kg, iv relative to control. The data set is classed as functional.
For data set [14], the system named is Felis catus. Description: Induction of electrical stimulation-induced monosynaptic spinal reflex response in unanesthetized decerebrated cat spinal cord segment assessed as duration at 5 mg/kg, iv. The data set is classed as functional.

Some results are limits rather than exact numbers.

The term inhibition in vivo denotes the change of the read-out against control, counted positive when it falls. High values mean strong suppression, low ones little suppression.

`CC(=O)O[C@H]1CC2=C(CC(N(C)C)C2)C[C@H]1OC(C)=O.Cc1ccc(S(=O)(=O)O)cc1` (stereo not given in full): the inhibition in vivo at 5 mg/kg with Felis catus [1] and in the data set with Felis catus [4] was 0% in each case. Moreover, the Activity result in the data set on Felis catus [2] and in the data set with Felis catus [3] was “Non-toxic” throughout. The Time in the data set on Felis catus [5] was found to be 1 h.

For `CN(C)C1CC2=C(C1)C[C@H](O)[C@H](O)C2` (stereo not given in full), the inhibition in vivo at 5 mg/kg in the data set with Felis catus [1] and in the data set on Felis catus [6] was 0% throughout. For the same compound, the Activity result in the data set on Felis catus [2] and in the data set with Felis catus [3] was “Non-toxic” each time.

As for `OC1CCC2=C(C1)CC(NC1CCCCC1)C2` (stereo not given), the inhibition in vivo at 5 mg/kg in the data set on Felis catus [1] and with Felis catus [4] was 0% in each case.

On to `O[C@@H]1CC2=C(CC(N3CCCCC3)C2)C[C@@H]1O` (stereo not given in full), for which the inhibition in vivo at 5 mg/kg in the data set with Felis catus [1] and with Felis catus [4] was 0% throughout. The Activity entry in the data set with Felis catus [2] and with Felis catus [3] was “Non-toxic” throughout. The Time in the data set with Felis catus [5] is <0.25 h.

`CC(=O)O[C@H]1CC2=C(CC(N3CCCCC3)C2)C[C@H]1OC(C)=O` (stereo not given in full): the inhibition in vivo at 5 mg/kg was found to be 0% in the data set on Felis catus [1] and 50% in the data set with Felis catus [4]. For the same compound, the Activity result with Felis catus [2] and in the data set on Felis catus [3] was “Non-toxic” in each case. In the data set on Felis catus [5], the Time was >2 h.

With `COc1cc(C(=O)OC2CCC3=C(C2)CC(N2CCCCC2)C3)cc(OC)c1OC` (stereo not given), the inhibition in vivo at 5 mg/kg with Felis catus [1] and with Felis catus [4] was 0% in each case.

For `OC1CCC2=C(C1)CC(N1CCCC1)C2` (stereo not given), the inhibition in vivo at 5 mg/kg in the data set with Felis catus [1] is 0%; in the data set with Felis catus [4], 20%. The Time was <15 min in the data set with Felis catus [7] and 0.25 h in the data set with Felis catus [5]. For the same compound, the Activity result in the data set on Felis catus [2] and in the data set with Felis catus [3] was “Non-toxic” each time.

`CCCCNC1CC2=C(CC(O)CC2)C1` (stereo not given): the inhibition in vivo at 5 mg/kg in the data set with Felis catus [1] and with Felis catus [4] was 0% each time.

On to `CCCCN(Cc1ccccc1)C1CC2=C(CC(O)CC2)C1.Cl` (stereo not given), for which the inhibition in vivo at 5 mg/kg in the data set with Felis catus [1] was 0%; in the data set with Felis catus [4], 20%. The Activity entry with Felis catus [2] and with Felis catus [3] was “Non-toxic” throughout. Besides, in the data set on Felis catus [5], the Time was 1 h.

`Cl.OC1CCC2=C(C1)CC(CN1CCCCC1)C2` (stereo not given): the inhibition in vivo at 5 mg/kg in the data set with Felis catus [1] and in the data set on Felis catus [4] was 0% each time. Further, the Activity entry with Felis catus [2] and in the data set on Felis catus [3] was “Non-toxic” each time. For the same compound, in the data set on Felis catus [5], the Time was 0.25 h.

In the case of `O[C@@H]1CC2=C(CC(CN3CCCCC3)C2)C[C@@H]1O` (stereo not given in full), the inhibition in vivo at 5 mg/kg with Felis catus [1] and in the data set with Felis catus [4] was 0% throughout.

As to `Cl.OC1CCC2=C(C1)CC(CCN1CCCCC1)C2` (stereo not given), the inhibition in vivo at 5 mg/kg in the data set on Felis catus [1] came out at 0%; in the data set with Felis catus [4], 20%. The Activity result in the data set on Felis catus [2] and in the data set with Felis catus [3] was “Non-toxic” throughout. In addition, in the data set with Felis catus [5], the Time turned out to be 0.25 h.

Regarding `CN1CC2=C(C[C@H](O)[C@H](O)C2)C1`, the inhibition in vivo at 5 mg/kg in the data set with Felis catus [1] and in the data set with Felis catus [4] was 0% in each case. Besides, the Activity entry in the data set with Felis catus [2] and in the data set on Felis catus [3] was “Non-toxic” in each case.

As for `CC(=O)O[C@H]1CC2=C(C[C@@H]1OC(C)=O)CN(C)C2`, the inhibition in vivo at 5 mg/kg in the data set with Felis catus [1] and with Felis catus [4] was 0% throughout.

For `OC1CCC2=C(C1)CN(C1CCCCC1)C2` (stereo not given), the inhibition in vivo at 5 mg/kg in the data set with Felis catus [1] and in the data set with Felis catus [4] was 0% in each case. Also, the Activity result in the data set with Felis catus [2] and in the data set on Felis catus [3] was “Non-toxic” each time. The Time with Felis catus [5] is <0.25 h.

Regarding `OC1CC=C(CCN2CCCCC2)CC1O` (stereo not given), the inhibition in vivo at 5 mg/kg with Felis catus [1] and with Felis catus [4] was 0% in each case.

`CC(=O)OC1CC=C(CCN2CCCCC2)CC1OC(C)=O` (stereo not given): the inhibition in vivo at 5 mg/kg in the data set on Felis catus [1] and with Felis catus [4] was 0% throughout.

As for `CN(C)CCCC1CC[C@@]2(O)CC=CC[C@]12O` (stereo not given in full), the inhibition in vivo at 5 mg/kg in the data set on Felis catus [1] and in the data set on Felis catus [4] was 0% in each case. In addition, the Activity result in the data set with Felis catus [2] and with Felis catus [3] was “Non-toxic” throughout.

As to `Oc1ccc2c(c1)CC(N1CCCCC1)C2` (stereo not given), the inhibition in vivo at 5 mg/kg in the data set with Felis catus [1] is 0%; with Felis catus [4] it was > 80%. The Activity entry in the data set on Felis catus [2] and with Felis catus [3] was “Non-toxic” each time. Further, in the data set on Felis catus [5], the Time was <0.25 h.

On to `Br.OC1CC2=C(CC=CC2)C1CCCN1CCCCC1` (stereo not given), for which the inhibition in vivo at 5 mg/kg in the data set with Felis catus [1] was determined as 0%; in the data set on Felis catus [4], 20%. Moreover, the Activity entry in the data set with Felis catus [2] and with Felis catus [3] was “Non-toxic” throughout. The Time in the data set on Felis catus [5] amounted to 1 h.

Regarding `CN(C)CCCC1C2=C(CC=CC2)CCC1O` (stereo not given), the inhibition in vivo at 5 mg/kg with Felis catus [1] and in the data set with Felis catus [4] was 0% in each case.

`O[C@@H]1CC2CC(CN3CCCCC3)CC2C[C@@H]1O` (stereo not given in full): the inhibition in vivo at 5 mg/kg in the data set on Felis catus [1] and in the data set with Felis catus [4] was 0% each time.

Consider `OC1CCC2=C(C1)CC(N1CCCCC1)C2` (mixture of isomers; 5), for which the Time in the data set on Felis catus [8] was 1 h; with Felis catus [9], >2 h. At 2 mg/kg the inhibition in vivo with Felis catus [10] was 0%. The values for the inhibition in vivo at 10 mg/kg in the data set with Felis catus [11] and with Felis catus [13] were 0% and > 80%, respectively. In addition, the Activity result in the data set with Felis catus [2] and in the data set on Felis catus [3] was “Non-toxic” throughout. Also, in the data set on Felis catus [12], the “inhibition (INH)” value is reported as >80%.

Take `OC1CCC2=C(C1)CC(N1CCCCC1)C2` (mixture of isomers; 6): the Time in the data set on Felis catus [8] amounted to 0.25 h. Also, the “inhibition (INH)” value in the data set on Felis catus [12] turned out to be 50%.

`CC(=O)O[C@H]1CC2=C(CC(N(C)C)C2)C[C@@H]1OC(C)=O` (relative stereo): the inhibition in vivo at 5 mg/kg in the data set with Felis catus [1] and in the data set with Felis catus [4] was 0% in each case.

Consider `O[C@H]1CC2=C(CC(N3CCCCC3)C2)C[C@@H]1O` (relative stereo), for which the inhibition in vivo at 5 mg/kg turned out to be 0% with Felis catus [1] and 50% with Felis catus [4]. Moreover, the Activity result in the data set with Felis catus [2] and with Felis catus [3] was “Non-toxic” each time. Further, the Time with Felis catus [5] amounted to 0.25 h.

For `CC(=O)O[C@@H]1CC2=C(CC(N3CCCCC3)C2)C[C@H]1OC(C)=O` (relative stereo), the inhibition in vivo at 5 mg/kg with Felis catus [1] and with Felis catus [4] was 0% each time.

As to `O[C@@H]1CC2=C(CC(N3CCCCC3)C2)C[C@H]1Oc1ccccc1` (relative stereo), the inhibition in vivo at 5 mg/kg in the data set with Felis catus [1] was 0%; in the data set on Felis catus [4], 20%. In addition, the Activity entry with Felis catus [2] and with Felis catus [3] was “Non-toxic” in each case. Besides, the Time in the data set on Felis catus [5] is <0.25 h.

`O[C@@H]1CC2=C(CC(N3CCCCC3)CC2)C[C@@H]1O` (relative stereo): the inhibition in vivo at 5 mg/kg in the data set on Felis catus [1] and with Felis catus [4] was 0% throughout.

As for `CC(=O)O[C@H]1CC2=C(CCC(N3CCCCC3)C2)C[C@H]1OC(C)=O` (relative stereo), the inhibition in vivo at 5 mg/kg in the data set on Felis catus [1] and with Felis catus [4] was 0% throughout.

Turning to `O[C@@H]1CC2=C(CC(CN3CCCCC3)C2)C[C@H]1O` (relative stereo), the inhibition in vivo at 5 mg/kg with Felis catus [1] was determined as 0%; in the data set with Felis catus [4], 20%. Besides, the Activity result in the data set with Felis catus [2] and in the data set with Felis catus [3] was “Non-toxic” each time. In addition, in the data set with Felis catus [5], the Time came to 0 h.

Regarding `CC(=O)O[C@@H]1CC2=C(CC(CN3CCCCC3)C2)C[C@H]1OC(C)=O.Cc1ccc(S(=O)(=O)O)cc1` (relative stereo), the inhibition in vivo at 5 mg/kg came to 0% with Felis catus [1] and 20% in the data set with Felis catus [4]. Besides, the Activity result with Felis catus [2] and in the data set on Felis catus [3] was “Non-toxic” throughout. For the same compound, the Time in the data set on Felis catus [5] is <0.25 h.

With `CN1CC2=C(C[C@H](O)[C@@H](O)C2)C1` (relative stereo), the inhibition in vivo at 5 mg/kg in the data set with Felis catus [1] and in the data set with Felis catus [4] was 0% throughout. Also, the Activity result with Felis catus [2] and with Felis catus [3] was “Non-toxic” each time. For the same compound, the Time in the data set with Felis catus [5] is <0.25 h.

In the case of `O[C@]12CC=CC[C@]1(O)CC(N1CCCCC1)C2` (relative stereo), the Time with Felis catus [7] and with Felis catus [14] was <15 min each time. Further, the inhibition in vivo at 5 mg/kg with Felis catus [6] is 0%. For the same compound, the Activity result in the data set with Felis catus [2] and in the data set on Felis catus [3] was “Non-toxic” each time.

Consider `OC1CCC2=C(C1)CC(N1CCCCC1)C2` (stereo in doubt; 7), for which the Time in the data set with Felis catus [8] is >2 h.

Source of the values: ChEMBL document CHEMBL3272060, “Selective inhibition of the monosynaptic spinal reflex by a series of hydroxylated alkylaminoindans” (J Med Chem, 1977).
